Measured values reported in article PMC3448056, “2-Benzamido-N-(1H-benzo[d]imidazol-2-yl)thiazole-4-carboxamide derivatives as potent inhibitors of CK1δ/ε” (Amino Acids, 2012).

How the values were obtained:
Test in all cases: KINOMEscan selectivity profiling
Type in all cases: binding
FLT3(D835Y) = molecular target: T1, FLT3(D835Y) (Homo sapiens, UniProt P36888, D835Y); conditions: remaining relative to controls, read-out: %Ctrl @ 10 μM (FLT3(D835Y))
T1 construct: purchased Ambit Biosciences Cooperation, San Diego, USA (KINOMEscan)
Description: (§1) KINOMEscan™ was performed to determine binding constants of coumpound 5 to 442 eukaryotic kinases by Ambit Biosciences Cooperation, San Diego, USA.

CLK4 = molecular target: T2, CLK4 (Homo sapiens, UniProt Q9HAZ1); conditions: remaining relative to controls, read-out: %Ctrl @ 10 μM (CLK4)
T2 construct: purchased Ambit Biosciences Cooperation, San Diego, USA (KINOMEscan)
Description: as §1

CLK1 = molecular target: T3, CLK1 (Homo sapiens, UniProt P49759); conditions: remaining relative to controls, read-out: %Ctrl @ 10 μM (CLK1)
T3 construct: purchased Ambit Biosciences Cooperation, San Diego, USA (KINOMEscan)
Description: as §1

CLK3 = molecular target: T4, CLK3 (Homo sapiens, UniProt P49761); conditions: remaining relative to controls, read-out: %Ctrl @ 10 μM (CLK3)
T4 construct: purchased Ambit Biosciences Cooperation, San Diego, USA (KINOMEscan)
Description: as §1

CSNK1G3 = molecular target: T5, CSNK1G3 (Homo sapiens, UniProt Q9Y6M4); conditions: remaining relative to controls, read-out: %Ctrl @ 10 μM (CSNK1G3)
T5 construct: purchased Ambit Biosciences Cooperation, San Diego, USA (KINOMEscan)
Description: as §1

CSNK1E = molecular target: T6, CSNK1E (Homo sapiens, UniProt P49674); conditions: remaining relative to controls, read-out: %Ctrl @ 10 μM (CSNK1E)
T6 construct: purchased Ambit Biosciences Cooperation, San Diego, USA (KINOMEscan)
Description: as §1

TAOK3 = molecular target: T7, TAOK3 (Homo sapiens, UniProt Q9H2K8); conditions: remaining relative to controls, read-out: %Ctrl @ 10 μM (TAOK3)
T7 construct: purchased Ambit Biosciences Cooperation, San Diego, USA (KINOMEscan service)
Description: as §1

PIP5K2C = molecular target: T8, PIP5K2C (Homo sapiens, UniProt Q8TBX8); conditions: remaining relative to controls, read-out: %Ctrl @ 10 μM (PIP5K2C)
T8 construct: purchased Ambit Biosciences Cooperation, San Diego, USA (KINOMEscan)
Description: as §1

DYRK2 = molecular target: T9, DYRK2 (Homo sapiens, UniProt Q92630); conditions: remaining relative to controls, read-out: %Ctrl @ 10 μM (DYRK2)
T9 construct: purchased Ambit Biosciences Cooperation, San Diego, USA (KINOMEscan)
Description: as §1

DYRK1B = molecular target: T10, DYRK1B (Homo sapiens, UniProt Q9Y463); conditions: remaining relative to controls, read-out: %Ctrl @ 10 μM (DYRK1B)
T10 construct: purchased Ambit Biosciences Cooperation, San Diego, USA (KINOMEscan)
Description: as §1

CLK2 = molecular target: T11, CLK2 (Homo sapiens, UniProt P49760); conditions: remaining relative to controls, read-out: %Ctrl @ 10 μM (CLK2)
T11 construct: purchased Ambit Biosciences Cooperation, San Diego, USA (KINOMEscan)
Description: as §1

DYRK1A = molecular target: T12, DYRK1A (Homo sapiens, UniProt Q13627); conditions: remaining relative to controls, read-out: %Ctrl @ 10 μM (DYRK1A)
T12 construct: purchased Ambit Biosciences Cooperation, San Diego, USA (KINOMEscan)
Description: as §1

TAOK1 = molecular target: T13, TAOK1 (Homo sapiens, UniProt Q7L7X3); conditions: remaining relative to controls, read-out: %Ctrl @ 10 μM (TAOK1)
T13 construct: purchased Ambit Biosciences Cooperation, San Diego, USA (KINOMEscan service)
Description: as §1

CSNK1D = molecular target: T14, CSNK1D (Homo sapiens, UniProt P48730); conditions: remaining relative to controls, read-out: %Ctrl @ 10 μM (CSNK1D)
T14 construct: purchased Ambit Biosciences Cooperation, San Diego, USA (KINOMEscan)
Description: as §1

CSNK1A1L = molecular target: T15, CSNK1A1L (Homo sapiens, UniProt Q8N752); conditions: remaining relative to controls, read-out: %Ctrl @ 10 μM (CSNK1A1L)
T15 construct: purchased Ambit Biosciences Cooperation, San Diego, USA (KINOMEscan)
Description: as §1

CSNK1G2 = molecular target: T16, CSNK1G2 (Homo sapiens, UniProt P78368); conditions: remaining relative to controls, read-out: %Ctrl @ 10 μM (CSNK1G2)
T16 construct: purchased Ambit Biosciences Cooperation, San Diego, USA (KINOMEscan)
Description: as §1

IRAK3 = molecular target: T17, IRAK3 (Homo sapiens, UniProt Q9Y616); conditions: remaining relative to controls, read-out: %Ctrl @ 10 μM (IRAK3)
T17 construct: purchased Ambit Biosciences Cooperation, San Diego, USA (KINOMEscan)
Description: as §1

SLK = molecular target: T18, SLK (Homo sapiens, UniProt Q9H2G2); conditions: remaining relative to controls, read-out: %Ctrl @ 10 μM (SLK)
T18 construct: purchased Ambit Biosciences Cooperation, San Diego, USA (KINOMEscan)
Description: as §1

CSNK1A1 = molecular target: T19, CSNK1A1 (Homo sapiens, UniProt P48729); conditions: remaining relative to controls, read-out: %Ctrl @ 10 μM (CSNK1A1)
T19 construct: purchased Ambit Biosciences Cooperation, San Diego, USA (KINOMEscan)
Description: as §1

FLT3(D835H) = molecular target: T20, FLT3(D835H) (Homo sapiens, UniProt P36888, D835H); conditions: remaining relative to controls, read-out: %Ctrl @ 10 μM (FLT3(D835H))
T20 construct: purchased Ambit Biosciences Cooperation, San Diego, USA (KINOMEscan)
Description: as §1

T15 sequence (Q8N752 whole entry): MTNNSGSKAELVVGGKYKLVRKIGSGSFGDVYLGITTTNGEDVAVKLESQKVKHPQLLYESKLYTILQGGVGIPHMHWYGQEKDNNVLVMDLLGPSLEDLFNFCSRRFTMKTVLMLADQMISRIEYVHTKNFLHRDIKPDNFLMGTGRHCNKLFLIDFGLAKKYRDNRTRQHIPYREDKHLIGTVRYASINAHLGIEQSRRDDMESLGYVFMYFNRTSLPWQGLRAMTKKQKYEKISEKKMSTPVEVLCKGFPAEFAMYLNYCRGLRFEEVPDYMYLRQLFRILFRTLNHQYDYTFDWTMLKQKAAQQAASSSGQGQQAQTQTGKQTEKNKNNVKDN
T11 sequence (P49760 whole entry): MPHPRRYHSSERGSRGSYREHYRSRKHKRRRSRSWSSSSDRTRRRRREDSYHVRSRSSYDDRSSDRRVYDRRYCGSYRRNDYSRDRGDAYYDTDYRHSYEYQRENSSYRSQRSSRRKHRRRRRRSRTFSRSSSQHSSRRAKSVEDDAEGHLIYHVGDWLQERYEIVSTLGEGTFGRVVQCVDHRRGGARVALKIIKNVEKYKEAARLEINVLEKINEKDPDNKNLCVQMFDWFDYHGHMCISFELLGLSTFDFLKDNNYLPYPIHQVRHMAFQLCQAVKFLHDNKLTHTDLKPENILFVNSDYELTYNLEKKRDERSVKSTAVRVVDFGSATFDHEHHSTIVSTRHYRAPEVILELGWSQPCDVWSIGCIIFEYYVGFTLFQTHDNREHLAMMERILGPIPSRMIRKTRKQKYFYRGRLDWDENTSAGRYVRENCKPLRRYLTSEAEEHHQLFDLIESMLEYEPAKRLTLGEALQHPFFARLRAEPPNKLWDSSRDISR
T17 sequence (Q9Y616 whole entry): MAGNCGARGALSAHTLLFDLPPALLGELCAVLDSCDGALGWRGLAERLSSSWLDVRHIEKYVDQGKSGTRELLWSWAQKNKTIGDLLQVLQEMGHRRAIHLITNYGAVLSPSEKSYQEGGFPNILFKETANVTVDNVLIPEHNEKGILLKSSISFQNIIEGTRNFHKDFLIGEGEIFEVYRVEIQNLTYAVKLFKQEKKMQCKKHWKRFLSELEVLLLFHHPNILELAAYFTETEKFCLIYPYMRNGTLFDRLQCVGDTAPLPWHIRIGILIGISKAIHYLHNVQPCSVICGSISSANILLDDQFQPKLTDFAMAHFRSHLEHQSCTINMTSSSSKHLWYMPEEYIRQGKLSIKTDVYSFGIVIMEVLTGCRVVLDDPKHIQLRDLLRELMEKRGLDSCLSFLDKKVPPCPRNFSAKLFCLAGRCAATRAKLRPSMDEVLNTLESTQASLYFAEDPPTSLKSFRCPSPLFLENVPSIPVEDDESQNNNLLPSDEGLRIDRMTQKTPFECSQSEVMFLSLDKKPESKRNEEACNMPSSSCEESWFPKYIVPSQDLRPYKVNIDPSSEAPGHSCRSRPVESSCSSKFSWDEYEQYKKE
T9 sequence (Q92630 whole entry): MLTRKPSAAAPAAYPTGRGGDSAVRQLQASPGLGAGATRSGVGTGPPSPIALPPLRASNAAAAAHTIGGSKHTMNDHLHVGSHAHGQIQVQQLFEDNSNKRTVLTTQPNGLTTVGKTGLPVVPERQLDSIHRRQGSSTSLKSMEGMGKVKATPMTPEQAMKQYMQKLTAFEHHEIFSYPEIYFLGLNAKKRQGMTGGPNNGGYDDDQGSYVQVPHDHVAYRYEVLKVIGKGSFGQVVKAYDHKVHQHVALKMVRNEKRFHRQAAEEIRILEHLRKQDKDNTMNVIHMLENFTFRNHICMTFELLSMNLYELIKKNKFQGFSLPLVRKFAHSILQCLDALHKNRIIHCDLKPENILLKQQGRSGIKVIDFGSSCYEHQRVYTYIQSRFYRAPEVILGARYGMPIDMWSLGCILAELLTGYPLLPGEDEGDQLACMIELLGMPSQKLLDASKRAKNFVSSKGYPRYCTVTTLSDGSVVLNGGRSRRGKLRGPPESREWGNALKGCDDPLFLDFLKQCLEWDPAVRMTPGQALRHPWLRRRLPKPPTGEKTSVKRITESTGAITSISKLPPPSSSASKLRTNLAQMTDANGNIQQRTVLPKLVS
T13 sequence (Q7L7X3 whole entry): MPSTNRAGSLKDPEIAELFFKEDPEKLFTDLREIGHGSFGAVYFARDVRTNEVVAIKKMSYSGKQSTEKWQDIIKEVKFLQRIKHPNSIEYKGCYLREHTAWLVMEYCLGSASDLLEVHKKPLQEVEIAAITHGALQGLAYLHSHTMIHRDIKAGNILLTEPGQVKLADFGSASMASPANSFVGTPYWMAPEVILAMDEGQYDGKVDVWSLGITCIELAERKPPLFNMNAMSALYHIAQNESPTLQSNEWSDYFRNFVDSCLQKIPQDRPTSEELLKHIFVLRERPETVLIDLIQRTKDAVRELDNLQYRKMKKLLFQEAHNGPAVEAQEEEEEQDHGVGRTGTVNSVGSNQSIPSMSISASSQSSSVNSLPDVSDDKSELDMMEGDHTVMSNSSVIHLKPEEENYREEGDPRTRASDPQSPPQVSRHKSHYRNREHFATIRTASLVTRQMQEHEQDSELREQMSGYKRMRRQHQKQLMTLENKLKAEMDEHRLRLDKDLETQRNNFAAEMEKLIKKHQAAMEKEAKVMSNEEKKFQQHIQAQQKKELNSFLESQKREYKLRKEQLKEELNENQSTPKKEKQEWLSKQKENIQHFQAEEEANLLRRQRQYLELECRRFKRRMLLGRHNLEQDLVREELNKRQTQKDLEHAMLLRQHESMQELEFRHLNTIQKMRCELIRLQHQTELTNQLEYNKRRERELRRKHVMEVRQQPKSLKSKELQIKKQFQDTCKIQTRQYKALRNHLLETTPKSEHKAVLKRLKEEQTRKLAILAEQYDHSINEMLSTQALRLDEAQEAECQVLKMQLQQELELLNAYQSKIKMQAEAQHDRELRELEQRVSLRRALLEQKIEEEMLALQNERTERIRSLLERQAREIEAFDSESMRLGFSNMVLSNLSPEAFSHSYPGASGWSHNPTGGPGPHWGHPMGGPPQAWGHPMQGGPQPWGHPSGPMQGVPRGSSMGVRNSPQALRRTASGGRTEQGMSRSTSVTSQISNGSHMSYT
T7 sequence (Q9H2K8 whole entry): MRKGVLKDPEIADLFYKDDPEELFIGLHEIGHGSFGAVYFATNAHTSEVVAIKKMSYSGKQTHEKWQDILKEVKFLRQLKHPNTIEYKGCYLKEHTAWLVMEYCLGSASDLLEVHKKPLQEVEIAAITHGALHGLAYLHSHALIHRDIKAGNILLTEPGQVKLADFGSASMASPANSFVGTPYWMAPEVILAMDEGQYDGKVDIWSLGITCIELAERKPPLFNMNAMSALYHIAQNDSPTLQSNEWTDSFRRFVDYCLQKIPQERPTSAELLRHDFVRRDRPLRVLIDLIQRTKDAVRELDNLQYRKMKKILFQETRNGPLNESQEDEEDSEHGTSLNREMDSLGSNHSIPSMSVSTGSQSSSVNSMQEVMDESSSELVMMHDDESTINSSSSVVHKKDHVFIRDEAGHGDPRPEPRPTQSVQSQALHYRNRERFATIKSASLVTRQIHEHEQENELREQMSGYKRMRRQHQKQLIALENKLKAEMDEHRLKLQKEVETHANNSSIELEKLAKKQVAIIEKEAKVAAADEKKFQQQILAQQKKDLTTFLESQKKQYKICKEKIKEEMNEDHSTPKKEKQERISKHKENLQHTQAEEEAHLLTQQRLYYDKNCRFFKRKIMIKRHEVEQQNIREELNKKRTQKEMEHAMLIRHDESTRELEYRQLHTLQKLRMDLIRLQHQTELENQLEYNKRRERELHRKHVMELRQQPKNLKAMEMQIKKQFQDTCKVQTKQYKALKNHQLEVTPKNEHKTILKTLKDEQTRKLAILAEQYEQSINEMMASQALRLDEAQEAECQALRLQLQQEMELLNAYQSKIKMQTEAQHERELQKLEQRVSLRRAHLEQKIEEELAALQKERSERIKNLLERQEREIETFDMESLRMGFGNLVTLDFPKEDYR
T6 sequence (P49674 whole entry): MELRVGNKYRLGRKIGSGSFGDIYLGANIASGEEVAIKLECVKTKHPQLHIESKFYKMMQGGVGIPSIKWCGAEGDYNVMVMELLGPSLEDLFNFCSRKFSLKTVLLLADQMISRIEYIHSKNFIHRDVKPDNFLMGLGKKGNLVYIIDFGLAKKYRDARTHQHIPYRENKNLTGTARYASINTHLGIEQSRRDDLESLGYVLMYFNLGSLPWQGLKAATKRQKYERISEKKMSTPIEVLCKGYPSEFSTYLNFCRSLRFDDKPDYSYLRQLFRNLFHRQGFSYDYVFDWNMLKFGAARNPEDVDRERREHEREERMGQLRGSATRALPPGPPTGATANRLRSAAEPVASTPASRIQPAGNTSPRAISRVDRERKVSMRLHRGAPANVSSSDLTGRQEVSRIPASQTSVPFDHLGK
T3 sequence (P49759 whole entry): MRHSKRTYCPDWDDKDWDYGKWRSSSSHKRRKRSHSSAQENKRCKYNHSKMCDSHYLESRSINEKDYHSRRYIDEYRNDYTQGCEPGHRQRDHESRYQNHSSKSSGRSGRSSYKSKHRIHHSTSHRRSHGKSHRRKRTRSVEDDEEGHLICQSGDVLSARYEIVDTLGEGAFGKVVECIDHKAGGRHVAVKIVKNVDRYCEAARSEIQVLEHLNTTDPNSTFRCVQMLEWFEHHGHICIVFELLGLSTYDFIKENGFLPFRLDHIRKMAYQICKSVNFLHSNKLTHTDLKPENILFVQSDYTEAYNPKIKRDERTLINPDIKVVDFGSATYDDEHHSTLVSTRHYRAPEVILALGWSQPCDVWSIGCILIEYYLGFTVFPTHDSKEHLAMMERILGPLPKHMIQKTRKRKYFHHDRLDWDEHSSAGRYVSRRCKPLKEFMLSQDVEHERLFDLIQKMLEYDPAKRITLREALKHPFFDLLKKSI

O=C(Nc1nc2ccc(C(F)(F)F)cc2[nH]1)c1csc(NC(=O)c2ccccc2OC(F)(F)F)n1 [Compound 5, 2-(2-(Trifluoromethoxy)benzamido)-N-(6-(trifluoromethyl)-1H-benzo[d]imidazol-2-yl)thiazole-4-carboxamide]
remaining binding at 10 µM (FLT3(D835Y)): 10% | remaining binding at 10 µM (CLK4): 7.2% | remaining binding at 10 µM (CLK1): 2.6% | remaining binding at 10 µM (CLK3): 20% | remaining binding at 10 µM (CSNK1G3): 31% | remaining binding at 10 µM (CSNK1E): 0.35% | remaining binding at 10 µM (TAOK3): 20% | remaining binding at 10 µM (PIP5K2C): 9.6% | remaining binding at 10 µM (DYRK2): 17% | remaining binding at 10 µM (DYRK1B): 6.6% | remaining binding at 10 µM (CLK2): 10% | remaining binding at 10 µM (DYRK1A): 4.1% | remaining binding at 10 µM (TAOK1): 24% | remaining binding at 10 µM (CSNK1D): 2% | remaining binding at 10 µM (CSNK1A1L): 1% | remaining binding at 10 µM (CSNK1G2): 9.9% | remaining binding at 10 µM (IRAK3): 27% | remaining binding at 10 µM (SLK): 12% | remaining binding at 10 µM (CSNK1A1): 3% | remaining binding at 10 µM (FLT3(D835H)): 25%
